Each structure is given as a SMILES string.

Data set [1] has as its system C57BL/6J mice. Description: Observable effects. It counts as in vivo. Conditions: Rimonabant (3 mg/kg s.c., 10 min before) / 50 mg placebo smoke.
For data set [2] the following is noted: following inhalation of 200 mg incinerated marijuana; ref Wilson et al., 2006; cited from earlier work.

Consider `Cc1c(C(=O)NN2CCCCC2)nn(-c2ccc(Cl)cc2Cl)c1-c1ccc(Cl)cc1` [Rimonabant], for which, in data set [1], the “Hyperreflexia, percentage of mice showing presence of observable effect” value was 0%; the “Ptosis, percentage of mice showing presence of observable effect” value was found to be 0%; the “Straub Tail, percentage of mice showing presence of observable effect” value stood at 0%.

Consider `CCCCCc1cc(O)c2c(c1)OC(C)(C)[C@@H]1CCC(C)=C[C@@H]21` [THC, Δ^9-tetrahydrocannabinol], for which, in data set [2], the “Brain concentration of THC” value is on record as 433 ± 66 ng/g.
